Target: T1, KMO mouse enzyme (Mus musculus, UniProt Q91WN4)
T1 construct: KMO enzyme prepared at Evotec from mouse liver (4-6 weeks old) via mitochondria isolation; from tissue; host or cells: mouse liver (4-6 weeks old), mitochondria isolation, prepared at Evotec
Assay: KMO mouse enzyme assay: L-Kynurenine hydroxylation to 3-Hydroxy-Kynurenine monitored by LC/MS (MRM)
Assay type: biochemical
Conditions: compound at 10 μM; KMO enzyme from mouse liver mitochondria
Experimental: A method of monitoring L-Kynurenine (KYN) hydroxylation to form 3-Hydroxy-Kynurenine (3OH-KYN) by LC/MS is described. Product is quantified by multiple reaction monitoring (MRM method).
• Compound: Stock concentrations: 10 mM in 100% DMSO • Enzyme: KMO enzyme prepared at Evotec from mouse liver (4-6 weeks old) via mitochondria isolation as described in the literature • Substrate: L-Kynurenine (Sigma: Cat# K3750, stock concentration: 10 mM in 100 mM potassium phosphate buffer, pH 7.4) Assay Conditions: […]

T1 sequence (Q91WN4 whole entry): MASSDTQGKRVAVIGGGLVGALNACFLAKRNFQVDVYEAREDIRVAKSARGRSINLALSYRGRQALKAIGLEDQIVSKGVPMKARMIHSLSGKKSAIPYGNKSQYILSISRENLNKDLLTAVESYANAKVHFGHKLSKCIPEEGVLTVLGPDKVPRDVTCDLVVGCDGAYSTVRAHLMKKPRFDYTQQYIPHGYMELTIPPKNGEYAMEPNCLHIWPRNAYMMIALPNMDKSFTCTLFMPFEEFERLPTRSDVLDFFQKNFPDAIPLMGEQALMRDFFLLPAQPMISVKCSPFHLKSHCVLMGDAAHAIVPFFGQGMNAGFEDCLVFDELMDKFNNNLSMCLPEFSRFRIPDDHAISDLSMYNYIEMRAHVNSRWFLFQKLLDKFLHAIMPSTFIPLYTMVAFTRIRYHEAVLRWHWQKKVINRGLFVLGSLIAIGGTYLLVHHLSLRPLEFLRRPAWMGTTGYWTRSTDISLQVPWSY

Row | INH.Mouse @ 10 μM | SMILES
1 | 87.7 | CN1CCN(c2ccc(NC(=O)c3cc(-c4cccc(Cl)c4)ncn3)cc2)CC1 [6-(3-Chloro-phenyl)-pyrimidine-4-carboxylicacid[4-(4-methyl-piperazin-1-yl)-phenyl]-amide]
2 | 94.0 | Cc1ccc(NC(=O)c2cc(-c3ccc(Cl)c(Cl)c3)ncn2)cn1.Cl [6-(3,4-Dichloro-phenyl)-pyrimidine-4-carboxylic acid (6-methyl-pyridin-3-yl)-amide hydrochloride salt]

Row | SMILES | INH.Mouse @ 10 μM
3 | Cl.O=C(O)c1cc(-c2cc(Cl)cc(Cl)c2)ccn1 [4-(3,5-Dichloro-phenyl)-pyridine-2-carboxylic acid hydrocloride salt] | 76.6

Same assay, conditions: compound at 10 μM; KMO enzyme from mouse liver mitochondria; read-out: INH.Mouse @ 10 μM

Row | inhibition at 10 µM | SMILES
4 | 100% | COc1cncc(NC(=O)c2cc(-c3cccc(Cl)c3)ncn2)c1 [6-(3-Chloro-phenyl)-pyrimidine-4-carboxylic acid (5-methoxy-pyridin-3-yl)-amide]
5 | 100% | O=C(c1cc(-c2cccc(Cl)c2)ncn1)N1CCC1 [Azetidin-1-yl-[6-(3-chloro-phenyl)-pyrimidin-4-yl]-methanone]
6 | 96.1% | O=C(O)c1cc(-c2cncc(F)c2)ncn1 [6-(5-Fluoro-pyridin-3-yl)-pyrimidine-4-carboxylic acid]
7 | 75.8% | O=C(O)c1cc(-c2cc(F)cc(C(F)(F)F)c2)ncn1 [6-(3-Fluoro-5-trifluoromethyl-phenyl)-pyrimidine-4-carboxylic acid]
8 | 91.1% | NC(=O)[C@@H]1CCCN1C(=O)c1cc(-c2cccc(Cl)c2)ncn1 [(S)-1-[6-(3-Chloro-phenyl)-pyrimidine-4-carbonyl]-pyrrolidine-2-carboxylic acid amide]
9 | 100% | COC(=O)c1cc(-c2ccc(C(F)(F)F)c(Cl)c2)ncn1 [6-(3-Chloro-4-trifluoromethyl-phenyl)-pyrimidine-4-carboxylic acid methyl ester]
10 | 90.5% | O=C(c1cc(-c2cccc(Cl)c2)ncn1)N1CCCC1 [[6-(3-Chloro-phenyl)-pyrimidin-4-yl]-pyrrolidin-1-yl-methanone]
11 | 100% | COc1ccccc1NC(=O)c1cc(-c2cccc(Cl)c2)ncn1 [6-(3-Chloro-phenyl)-pyrimidine-4-carboxylic acid (2-methoxy-phenyl)-amide]
12 | 93.2% | COC(=O)c1cc(-c2cncc(Cl)c2)ncn1 [6-(5-Chloro-pyridin-3-yl)-pyrimidine-4-carboxylic acid methyl ester]
13 | 100% | Cc1nnc(NC(=O)c2cc(-c3ccc(Cl)c(Cl)c3)ncn2)o1 [6-(3,4-Dichloro-phenyl)-pyrimidine-4-carboxylic acid (5-methyl-[1,3,4]oxadiazol-2-yl)-amide]
14 | 100% | O=C(Nc1cncnc1)c1cc(-c2ccc(F)c(F)c2)ncn1 [6-(3,4-Difluoro-phenyl)-pyrimidine-4-carboxylic acid pyrimidin-5-ylamide]
15 | 100% | O=C(NCc1ccncc1)c1cc(-c2cccc(Cl)c2)ncn1 [6-(3-Chloro-phenyl)-pyrimidine-4-carboxylic acid (pyridin-4-ylmethyl)-amide]
16 | 60.8% | O=C(Nc1cncnc1)c1cc(-c2cccc(Cl)c2)ccn1 [4-(3-Chloro-phenyl)-pyridine-2-carboxylic acid pyrimidin-5-ylamide]
17 | 106% | COC(=O)c1cc(-c2cccc(Cl)c2)ncn1 [6-(3-Chloro-phenyl)-pyrimidine-4-carboxylic acid methyl ester]
18 | 95.8% | O=C(NCCO)c1cc(-c2cccc(Cl)c2)ncn1 [6-(3-Chloro-phenyl)-pyrimidine-4-carboxylic acid (2-hydroxy-ethyl)-amide]
19 | 100% | COC(=O)c1cc(-c2ccccc2)ncn1 [6-Phenyl-pyrimidine-4-carboxylic acid methyl ester]
20 | 99.8% | C[C@H](NC(=O)c1cc(-c2cccc(Cl)c2)ncn1)c1ccccc1 [6-(3-Chloro-phenyl)-pyrimidine-4-carboxylic acid ((S)-1-phenyl-ethyl)-amide]

Row | inhibition at 10 µM | SMILES
21 | 92.6% | O=C(c1cc(-c2ccc(Cl)c(Cl)c2)ncn1)N1CCCc2ccccc21 [[6-(3,4-Dichloro-phenyl)-pyrimidin-4-yl]-(3,4-dihydro-2H-quinolin-1-yl)-methanone]
22 | 43.5% | O=C(Nc1ccccc1)c1cc(-c2ccc(Cl)c(Cl)c2)ccn1 [4-(3,4-Dichloro-phenyl)-pyridine-2-carboxylic acid phenylamide]
23 | 100% | O=C(c1cc(-c2cccc(Cl)c2)ncn1)N1CCc2cc(Cl)ccc21 [(5-Chloro-2,3-dihydro-indol-1-yl)-[6-(3-chloro-phenyl)-pyrimidin-4-yl]-methanone]
24 | 79% | Cc1noc(C)c1NC(=O)c1cc(-c2cccc(Cl)c2)ncn1 [6-(3-Chloro-phenyl)-pyrimidine-4-carboxylic acid (3,5-dimethyl-isoxazol-4-yl)-amide]
25 | 59.7% | O=C(Nc1ccccc1)c1cc(-c2cc(Cl)cc(Cl)c2)ccn1 [4-(3,5-Dichloro-phenyl)-pyridine-2-carboxylic acid phenylamide]
26 | 100% | O=C(O)c1cc(-c2cc(Cl)ccc2F)ncn1 [6-(5-Chloro-2-fluoro-phenyl)-pyrimidine-4-carboxylic acid]
27 | 95.2% | CN(C(=O)c1cc(-c2cccc(Cl)c2)ncn1)c1cccnc1 [6-(3-Chloro-phenyl)-pyrimidine-4-carboxylic acid methyl-pyridin-3-yl-amide]
28 | 100% | COc1ccc(N(C)C(=O)c2cc(-c3cccc(Cl)c3)ncn2)cc1 [6-(3-Chloro-phenyl)-pyrimidine-4-carboxylic acid (4-methoxy-phenyl)-methyl-amide]
29 | 85% | COc1ccc(S(=O)(=O)Nc2cc(-c3ccc(Cl)c(Cl)c3)ncn2)cc1OC [N-[6-(3,4-Dichloro-phenyl)-pyrimidin-4-yl]-3,4-dimethoxy-benzenesulfonamide]
30 | 100% | CN(C(=O)c1cc(-c2cccc(Cl)c2)ncn1)c1ccccc1 [6-(3-Chloro-phenyl)-pyrimidine-4-carboxylic acid methyl-phenyl-amide]
31 | 80.3% | O=C(O)c1cc(-c2cc(C(F)(F)F)ccc2F)ncn1 [6-(2-Fluoro-5-trifluoromethyl-phenyl)-pyrimidine-4-carboxylic acid]
32 | 100% | Cc1ccc(NC(=O)c2cc(-c3ccc(Cl)c(Cl)c3)ncn2)cn1 [6-(3,4-Dichloro-phenyl)-pyrimidine-4-carboxylic acid (6-methyl-pyridin-3-yl)-amide]
33 | 93.4% | COc1ccc(NC(=O)c2cc(-c3cccc(Cl)c3)ncn2)cn1 [6-(3-Chloro-phenyl)-pyrimidine-4-carboxylic acid (6-methoxy-pyridin-3-yl)-amide]
34 | 51.2% | CS(=O)(=O)Nc1cc(-c2ccc(Cl)c(Cl)c2)ncn1 [N-[6-(3,4-Dichloro-phenyl)-pyrimidin-4-yl]-methanesulfonamide]
35 | 101% | COC(=O)c1cc(-c2ccc(Cl)c(Cl)c2)ncn1 [6-(3,4-Dichloro-phenyl)-pyrimidine-4-carboxylic acid methyl ester]
36 | 100% | COC(=O)c1cc(-c2ccc(OC)c(Cl)c2)ncn1 [6-(3-Chloro-4-methoxy-phenyl)-pyrimidine-4-carboxylic acid methyl ester]
